Measurements taken from PubChem BioAssay (NCI).
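All cell lines were grown in 96-well plates and treated with compound for 48 hours. GI50 marks 50% less growth. TGI denotes the concentration required for complete inhibition of growth.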

Experiments:
Experiment in all cases: NCI-60 cell line screen, 48 h
[1] = tested on: RXF 393 renal
[2] = tested on: BT-549 breast
[3] = tested on: MDA-MB-435
[4] = tested on: UO-31 renal
[5] = tested on: COLO 205 colon
[6] = tested on: SN12C renal
[7] = tested on: NCI-H460 lung
[8] = tested on: SF-539 CNS
[9] = tested on: U251 CNS
[10] = tested on: CAKI-1 renal
[11] = tested on: M14 melanoma
[12] = tested on: OVCAR-3 ovarian
[13] = tested on: EKVX NSCLC
[14] = tested on: TK-10 renal
[15] = tested on: SK-OV-3 ovarian
[16] = tested on: HCT-15 colon
[17] = tested on: MOLT-4 leukemia
[18] = tested on: PC-3 prostate
[19] = tested on: RPMI-8226 leukemia
[20] = tested on: T-47D breast
[21] = tested on: UACC-62 melanoma
[22] = tested on: K-562 leukemia
[23] = tested on: SK-MEL-28 melanoma
[24] = tested on: SNB-75 CNS
[25] = tested on: SW-620 colon
[26] = tested on: SK-MEL-2 melanoma
[27] = tested on: 786-0 renal
[28] = tested on: A498 renal
[29] = tested on: MALME-3M melanoma
[30] = tested on: SK-MEL-5 melanoma
[31] = tested on: HOP-92 NSCLC
[32] = tested on: HL-60(TB) leukemia
[33] = tested on: OVCAR-4 ovarian
[34] = tested on: SF-295 CNS
[35] = tested on: OVCAR-8 ovarian
[36] = tested on: HCC-2998 colon
[37] = tested on: SF-268 CNS
[38] = tested on: MDA-MB-231 breast
[39] = tested on: NCI-H226 lung
[40] = tested on: NCI/ADR-RES ovarian
[41] = tested on: DU-145 prostate
[42] = tested on: ACHN renal
[43] = tested on: MCF7 breast
[44] = tested on: UACC-257 melanoma
[45] = tested on: HOP-62 NSCLC
[46] = tested on: SR leukemia
[47] = tested on: IGROV1 ovarian
[48] = tested on: CCRF-CEM leukemia
[49] = tested on: SNB-19 CNS
[50] = tested on: OVCAR-5 ovarian
[51] = tested on: MDA-MB-468 breast
[52] = tested on: KM12 colon
[53] = tested on: HS 578T breast
[54] = tested on: LOX IMVI melanoma

Question: Which results are given for `COc1ccc2[nH]c(O)c(N=NC(=O)COc3ccc(NC(=O)Nc4ccc(Cl)c(Cl)c4)cc3)c2c1`?
Answer: GI50 [1]: 1.05 µM; TGI [1]: 2.9 µM; GI50 [2]: 2.01 µM; TGI [2]: 4.47 µM; GI50 [3]: 0.605 µM; TGI [3]: 2.36 µM; GI50 [4]: 31.3 µM; TGI [4]: > 100 µM; GI50 [5]: 1.12 µM; TGI [5]: 4.21 µM; GI50 [6]: 1.1 µM; TGI [6]: 3.45 µM; GI50 [7]: 0.437 µM; TGI [7]: 1.49 µM; GI50 [8]: 0.767 µM; TGI [8]: 2.09 µM; GI50 [9]: 3.37 µM; TGI [9]: 14.9 µM; GI50 [10]: 2.39 µM; TGI [10]: 11 µM; GI50 [11]: 0.992 µM; TGI [11]: 4.57 µM; GI50 [12]: 0.696 µM; TGI [12]: 2.28 µM; GI50 [13]: 3.89 µM; TGI [13]: 25.9 µM; GI50 [14]: 3.79 µM; TGI [14]: 14.6 µM; GI50 [15]: 5.1 µM; TGI [15]: 17.5 µM; GI50 [16]: 31.6 µM; TGI [16]: > 100 µM; GI50 [17]: 1.61 µM; TGI [17]: 17.9 µM; GI50 [18]: 1.42 µM; TGI [18]: 4.72 µM; GI50 [19]: 2.71 µM; TGI [19]: > 100 µM; GI50 [20]: 1.46 µM; TGI [20]: 3.26 µM; GI50 [21]: 2.86 µM; TGI [21]: 12.7 µM; GI50 [22]: 0.575 µM; TGI [22]: 19.7 µM; GI50 [23]: 1.63 µM; TGI [23]: 4.05 µM; GI50 [24]: 1.61 µM; TGI [24]: 3.98 µM; GI50 [25]: 0.441 µM; TGI [25]: 1.37 µM; GI50 [26]: 10.4 µM; TGI [26]: 23 µM; GI50 [27]: 1.07 µM; TGI [27]: 2.75 µM; GI50 [28]: 1.84 µM; TGI [28]: 5.4 µM; GI50 [29]: 0.452 µM; TGI [29]: 1.68 µM; GI50 [30]: 1.99 µM; TGI [30]: 5.36 µM; GI50 [31]: 0.615 µM; TGI [31]: 2.63 µM; GI50 [32]: 6.71 µM; TGI [32]: 25.1 µM; GI50 [33]: 0.691 µM; TGI [33]: 2.74 µM; GI50 [34]: 1.91 µM; TGI [34]: 5.22 µM; GI50 [35]: 2.33 µM; TGI [35]: 15.7 µM; GI50 [36]: 2.97 µM; TGI [36]: 15.6 µM; GI50 [37]: 1.64 µM; TGI [37]: 10.2 µM; GI50 [38]: 1.46 µM; TGI [38]: 3.55 µM; GI50 [39]: 1.07 µM; TGI [39]: 3.45 µM; GI50 [40]: 25.4 µM; TGI [40]: > 100 µM; GI50 [41]: 0.493 µM; TGI [41]: 1.91 µM; GI50 [42]: 2.18 µM; TGI [42]: 13.2 µM; GI50 [43]: 0.488 µM; TGI [43]: 6.05 µM; GI50 [44]: 3.36 µM; TGI [44]: 15.9 µM; GI50 [45]: 2.88 µM; TGI [45]: 14.1 µM; GI50 [46]: 1.04 µM; TGI [46]: 18.4 µM; GI50 [47]: 1.91 µM; TGI [47]: 6.35 µM; GI50 [48]: 0.822 µM; TGI [48]: 19.1 µM; GI50 [49]: 3.33 µM; TGI [49]: 14.2 µM; GI50 [50]: 1.53 µM; TGI [50]: 6 µM; GI50 [51]: 1.17 µM; TGI [51]: 3.01 µM; GI50 [52]: 1.29 µM; TGI [52]: 7.64 µM; GI50 [53]: 1.87 µM; TGI [53]: 5.52 µM; GI50 [54]: 0.309 µM; TGI [54]: 1.03 µM
